{
  "source": "patent US20220144823A1",
  "about": "“PYRAZOLOPYRIDINE DERIVATIVES AS INHIBITORS OF PASK” (Galapagos NV, priority 2019, published 2022)",
  "tested_on": "diabetic non human primates (NHPs) under a high-calorie diet (HCD)",
  "experiment": "Diabetic monkey model;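 further: male obese diabetic cynomolgus monkeys fed a high-fat, high-fructose diet, randomized into 4 groups, dosed with test compound for 8 weeks, then a 4-week washout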",
  "conditions": "for Oral glucose tolerance test (glucose AUC): fasted animals; for Hepatic echogenicity (H/R ratio): Hepatic (right lobe)/Renal cortex (right kidney) ratio, ultrasound",
  "key": {"[1]": {"conditions": "week 1, treatment, metformin 25 mg/kg b.i.d., Cpd 18 30 mg/kg q.d., p.o."}, "[2]": {"conditions": "week 2, treatment, metformin 25 mg/kg b.i.d., Cpd 18 30 mg/kg q.d., p.o."}, "[3]": {"conditions": "week 3, treatment, metformin 25 mg/kg b.i.d., Cpd 18 30 mg/kg q.d., p.o."}, "[4]": {"conditions": "week 4, treatment, metformin 25 mg/kg b.i.d., Cpd 18 30 mg/kg q.d., p.o."}, "[5]": {"conditions": "week 9, washout without treatment"}, "[6]": {"conditions": "week 10, washout without treatment"}, "[7]": {"conditions": "week 11, washout without treatment"}, "[8]": {"conditions": "week 12, washout without treatment"}},
  "procedure": "The aim of this assay is to determine the effect of a test compound on lipid metabolism and glucose handling in diabetic non human primates (NHPs) under a high-calorie diet (HCD) consisting of high-fat and high-fructose.\nMale obese diabetic cynomolgus monkeys were selected based on their body weights, glucose, insulin levels, and blood lipid parameters. The inclusion criteria were the following: age ≤22 years; fasted plasma glucose between 120 and 300 mg/dL; triglycerides >125 mg/dL, and insulin >75 mIU/mL.\nThe animals are maintained at 20-23° C. and 40-70% humidity on a 12 h light/dark cycle (7 AM-7 PM). Water is provided ad libitum and the animals are fed twice daily with the high-calorie diet (HCD) enriched with seasonal fruits or vegetables.\nAfter the baseline period, animals were randomized into 4 groups according to body weight, as well as their blood glucose and lipid parameters.\nThe following parameters were measured once per week during the 8 weeks of treatment and also during the 4 weeks of washout: • body weight • food consumption • blood chemistry (fasted blood glucose, plasma triglycerides, plasma total cholesterol, low density lipoproteins (LDL), and high density lipoproteins (HDL))\nOral glucose tolerance was measured in fasted animals before treatment initiation (baseline), at the end of the treatment period (week 8), and after 4 weeks of washout (week 12).",
  "data": [
    {"smiles": "Cc1nn(C(C)C)c(C)c1-c1cnn2ccc(-c3cc(C(=O)O)co3)cc12", "note": "[Cpd 18, 5-[3-(1-isopropyl-3,5-dimethyl-pyrazol-4-yl)pyrazolo[1,5-a]pyridin-5-yl]furan-3-carboxylic acid]", "values": [
      {"measurement": "Total cholesterol change (% change from baseline)", "setting": "Group 3, week 9, washout", "result": "−31.5", "unit": "% change from baseline"},
      {"measurement": "Triglyceride change (% change from baseline)", "setting": "Group 3, week 9, washout", "result": "−49.3", "unit": "% change from baseline"},
      {"measurement": "HDL change (% change from baseline)", "setting": "Group 3, week 10, washout", "result": 8.0, "unit": "%"},
      {"measurement": "LDL change (% change from baseline)", "setting": "Group 3, week 10, washout", "result": "−13.5", "unit": "%"},
      {"measurement": "Total cholesterol change (% change from baseline)", "setting": "Group 3, week 10, washout", "result": "−8.2", "unit": "% change from baseline"},
      {"measurement": "Triglyceride change (% change from baseline)", "setting": "Group 3, week 10, washout", "result": "−45.9", "unit": "% change from baseline"},
      {"measurement": "HDL change (% change from baseline)", "setting": "Group 3, week 11, washout", "result": 21.9, "unit": "%"},
      {"measurement": "LDL change (% change from baseline)", "setting": "Group 3, week 11, washout", "result": 10.2, "unit": "%"},
      {"measurement": "Total cholesterol change (% change from baseline)", "setting": "Group 3, week 11, washout", "result": 15.5, "unit": "% change from baseline"},
      {"measurement": "Triglyceride change (% change from baseline)", "setting": "Group 3, week 11, washout", "result": "−19.9", "unit": "% change from baseline"},
      {"measurement": "HDL change (% change from baseline)", "setting": "Group 3, week 12, washout", "result": 23.9, "unit": "%"},
      {"measurement": "LDL change (% change from baseline)", "setting": "Group 3, week 12, washout", "result": 46.2, "unit": "%"},
      {"measurement": "Total cholesterol change (% change from baseline)", "setting": "Group 3, week 12, washout", "result": 48.7, "unit": "% change from baseline"},
      {"measurement": "Triglyceride change (% change from baseline)", "setting": "Group 3, week 12, washout", "result": 18.8, "unit": "% change from baseline"},
      {"measurement": "HDL change (% change from baseline)", "setting": "Group 4, week 1, treatment", "result": 2.1, "unit": "%"},
      {"measurement": "LDL change (% change from baseline)", "setting": "Group 4, week 1, treatment", "result": 67.1, "unit": "%"},
      {"measurement": "Total cholesterol change (% change from baseline)", "setting": "Group 4, week 1, treatment", "result": 50.9, "unit": "% change from baseline"},
      {"measurement": "Triglyceride change (% change from baseline)", "setting": "Group 4, week 1, treatment", "result": "−31.7", "unit": "% change from baseline"},
      {"measurement": "HDL change (% change from baseline)", "setting": "Group 4, week 2, treatment", "result": "−13.1", "unit": "%"},
      {"measurement": "LDL change (% change from baseline)", "setting": "Group 4, week 2, treatment", "result": 46.7, "unit": "%"},
      {"measurement": "Total cholesterol change (% change from baseline)", "setting": "Group 4, week 2, treatment", "result": 30.3, "unit": "% change from baseline"},
      {"measurement": "Triglyceride change (% change from baseline)", "setting": "Group 4, week 2, treatment", "result": "−30.0", "unit": "% change from baseline"},
      {"measurement": "HDL change (% change from baseline)", "setting": "Group 4, week 3, treatment", "result": "−14.9", "unit": "%"},
      {"measurement": "LDL change (% change from baseline)", "setting": "Group 4, week 3, treatment", "result": 33.6, "unit": "%"},
      {"measurement": "Total cholesterol change (% change from baseline)", "setting": "Group 4, week 3, treatment", "result": 20.9, "unit": "% change from baseline"},
      {"measurement": "Triglyceride change (% change from baseline)", "setting": "Group 4, week 3, treatment", "result": "−28.2", "unit": "% change from baseline"},
      {"measurement": "HDL change (% change from baseline)", "setting": "Group 4, week 4, treatment", "result": "−16.0", "unit": "%"},
      {"measurement": "LDL change (% change from baseline)", "setting": "Group 4, week 4, treatment", "result": "−21.9", "unit": "%"},
      {"measurement": "Total cholesterol change (% change from baseline)", "setting": "Group 4, week 4, treatment", "result": "−22.6", "unit": "% change from baseline"},
      {"measurement": "Triglyceride change (% change from baseline)", "setting": "Group 4, week 4, treatment", "result": "−48.3", "unit": "% change from baseline"},
      {"measurement": "HDL change (% change from baseline)", "setting": "Group 4, week 5, treatment", "result": "−6.9", "unit": "%"},
      {"measurement": "LDL change (% change from baseline)", "setting": "Group 4, week 5, treatment", "result": 0.0, "unit": "%"},
      {"measurement": "Total cholesterol change (% change from baseline)", "setting": "Group 4, week 5, treatment", "result": "−7.8", "unit": "% change from baseline"},
      {"measurement": "Triglyceride change (% change from baseline)", "setting": "Group 4, week 5, treatment", "result": "−52.3", "unit": "% change from baseline"},
      {"measurement": "HDL change (% change from baseline)", "setting": "Group 4, week 6, treatment", "result": 0.3, "unit": "%"},
      {"measurement": "LDL change (% change from baseline)", "setting": "Group 4, week 6, treatment", "result": 2.1, "unit": "%"},
      {"measurement": "Total cholesterol change (% change from baseline)", "setting": "Group 4, week 6, treatment", "result": "−2.6", "unit": "% change from baseline"},
      {"measurement": "Triglyceride change (% change from baseline)", "setting": "Group 4, week 6, treatment", "result": "−50.8", "unit": "% change from baseline"},
      {"measurement": "HDL change (% change from baseline)", "setting": "Group 4, week 7, treatment", "result": 0.9, "unit": "%"},
      {"measurement": "LDL change (% change from baseline)", "setting": "Group 4, week 7, treatment", "result": "−38.5", "unit": "%"},
      {"measurement": "Total cholesterol change (% change from baseline)", "setting": "Group 4, week 7, treatment", "result": "−32.9", "unit": "% change from baseline"},
      {"measurement": "Triglyceride change (% change from baseline)", "setting": "Group 4, week 7, treatment", "result": "−63.2", "unit": "% change from baseline"},
      {"measurement": "HDL change (% change from baseline)", "setting": "Group 4, week 8, treatment", "result": 8.7, "unit": "%"},
      {"measurement": "LDL change (% change from baseline)", "setting": "Group 4, week 8, treatment", "result": "−32.5", "unit": "%"},
      {"measurement": "Total cholesterol change (% change from baseline)", "setting": "Group 4, week 8, treatment", "result": "−26.1", "unit": "% change from baseline"},
      {"measurement": "Triglyceride change (% change from baseline)", "setting": "Group 4, week 8, treatment", "result": "−56.1", "unit": "% change from baseline"},
      {"measurement": "HDL change (% change from baseline)", "setting": "Group 4, week 9, washout", "result": 18.9, "unit": "%"},
      {"measurement": "LDL change (% change from baseline)", "setting": "Group 4, week 9, washout", "result": "−20.0", "unit": "%"},
      {"measurement": "Total cholesterol change (% change from baseline)", "setting": "Group 4, week 9, washout", "result": "−15.5", "unit": "% change from baseline"},
      {"measurement": "Triglyceride change (% change from baseline)", "setting": "Group 4, week 9, washout", "result": "−60.2", "unit": "% change from baseline"},
      {"measurement": "HDL change (% change from baseline)", "setting": "Group 4, week 10, washout", "result": 6.0, "unit": "%"},
      {"measurement": "LDL change (% change from baseline)", "setting": "Group 4, week 10, washout", "result": 29.3, "unit": "%"},
      {"measurement": "Total cholesterol change (% change from baseline)", "setting": "Group 4, week 10, washout", "result": 10.9, "unit": "% change from baseline"},
      {"measurement": "Triglyceride change (% change from baseline)", "setting": "Group 4, week 10, washout", "result": "−58.1", "unit": "% change from baseline"},
      {"measurement": "HDL change (% change from baseline)", "setting": "Group 4, week 11, washout", "result": 11.0, "unit": "%"},
      {"measurement": "LDL change (% change from baseline)", "setting": "Group 4, week 11, washout", "result": 45.1, "unit": "%"},
      {"measurement": "Total cholesterol change (% change from baseline)", "setting": "Group 4, week 11, washout", "result": 28.5, "unit": "% change from baseline"},
      {"measurement": "Triglyceride change (% change from baseline)", "setting": "Group 4, week 11, washout", "result": "−41.4", "unit": "% change from baseline"},
      {"measurement": "HDL change (% change from baseline)", "setting": "Group 4, week 12, washout", "result": 12.0, "unit": "%"},
      {"measurement": "LDL change (% change from baseline)", "setting": "Group 4, week 12, washout", "result": 87.5, "unit": "%"},
      {"measurement": "Total cholesterol change (% change from baseline)", "setting": "Group 4, week 12, washout", "result": 58.3, "unit": "% change from baseline"},
      {"measurement": "Triglyceride change (% change from baseline)", "setting": "Group 4, week 12, washout", "result": "−65.4", "unit": "% change from baseline"},
      {"measurement": "Oral glucose tolerance test (glucose AUC)", "setting": "week 0, baseline (before treatment initiation)", "result": 2371, "unit": "mmol·min/L"},
      {"measurement": "Bodyweight change (% change from baseline)", "setting": "[1]", "result": 0.4, "unit": "%"},
      {"measurement": "HbA1c change (% change from baseline)", "setting": "[1]", "result": "−6.3", "unit": "%"},
      {"measurement": "Bodyweight change (% change from baseline)", "setting": "[2]", "result": "−1.9", "unit": "%"},
      {"measurement": "HbA1c change (% change from baseline)", "setting": "[2]", "result": "−9.4", "unit": "%"},
      {"measurement": "Bodyweight change (% change from baseline)", "setting": "[3]", "result": "−3.8", "unit": "%"},
      {"measurement": "HbA1c change (% change from baseline)", "setting": "[3]", "result": "−17.2", "unit": "%"},
      {"measurement": "Bodyweight change (% change from baseline)", "setting": "[4]", "result": "−5.6", "unit": "%"},
      {"measurement": "HbA1c change (% change from baseline)", "setting": "[4]", "result": "−24.1", "unit": "%"},
      {"measurement": "Oral glucose tolerance test (glucose AUC)", "setting": "week 8, end of treatment period", "result": 2307, "unit": "mmol·min/L"},
      {"measurement": "Bodyweight change (% change from baseline)", "setting": "[5]", "result": "−13.6", "unit": "%"},
      {"measurement": "HbA1c change (% change from baseline)", "setting": "[5]", "result": "−30.7", "unit": "%"},
      {"measurement": "Hepatic echogenicity (H/R ratio)", "setting": "week 9, washout", "result": 1.03},
      {"measurement": "Bodyweight change (% change from baseline)", "setting": "[6]", "result": "−14.5", "unit": "%"},
      {"measurement": "HbA1c change (% change from baseline)", "setting": "[6]", "result": "−25.6", "unit": "%"},
      {"measurement": "Bodyweight change (% change from baseline)", "setting": "[7]", "result": "−14.3", "unit": "%"},
      {"measurement": "HbA1c change (% change from baseline)", "setting": "[7]", "result": "−21.3", "unit": "%"},
      {"measurement": "Oral glucose tolerance test (glucose AUC)", "setting": "week 12, after 4 weeks of washout", "result": 2291, "unit": "mmol·min/L"},
      {"measurement": "Bodyweight change (% change from baseline)", "setting": "[8]", "result": "−14.8", "unit": "%"},
      {"measurement": "HbA1c change (% change from baseline)", "setting": "[8]", "result": "−27.9", "unit": "%"},
      {"measurement": "Hepatic echogenicity (H/R ratio)", "setting": "week −3, baseline", "result": 1.13}
    ]}
  ]
}
